How the values were obtained:
Assay in all cases: relative viability (nuclei count vs DMSO), 5 days (fraction); higher = more cells survive
NCI-H520 = test system: NCI-H520
In short: (§1)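 Lung cancer cell lines in 1536-well plates got either a single drug or a fixed anchor-drug dose together with five library-drug doses (not always all listed) in √10 steps, by pin tool, on the day after seeding. Nuclei were counted after 5 days, and relative viability is the treated-to-vehicle ratio of nuclei counts. Values are medians of duplicate plates.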

NCI-H1944 = test system: NCI-H1944
In short: as §1

NCI-H1651 = test system: NCI-H1651
In short: as §1

NCI-H2087 = test system: NCI-H2087
In short: as §1

HCC-15 = test system: HCC-15
In short: as §1

NCI-H1975 = test system: NCI-H1975
In short: as §1

HCC-827 = test system: HCC-827
In short: as §1

NCI-H727 = test system: NCI-H727
In short: as §1

NCI-H661 = test system: NCI-H661
In short: as §1

NCI-H647 = test system: NCI-H647
In short: as §1

NCI-H1792 = test system: NCI-H1792
In short: as §1

COR-L 105 = test system: COR-L 105
In short: as §1

NCI-H522 = test system: NCI-H522
In short: as §1

NCI-H650 = test system: NCI-H650
In short: as §1

COR-L23 = test system: COR-L23
In short: as §1

NCI-H1755 = test system: NCI-H1755
In short: as §1

NCI-H358 = test system: NCI-H358
In short: as §1

H3255 = test system: H3255
In short: as §1

EPLC-272H = test system: EPLC-272H
In short: as §1

NCI-H1437 = test system: NCI-H1437
In short: as §1

NCI-H1650 = test system: NCI-H1650
In short: as §1

LCLC-103H = test system: LCLC-103H
In short: as §1

With `COCC1(CO)C(=O)C2CCN1CC2` (stereo not given) [PRIMA-1MET] + CC(=O)Nc1cccc(-n2c(=O)n(C3CC3)c(=O)c3c(Nc4ccc(I)cc4F)n(C)c(=O)c(C)c32)c1 [Trametinib] (partner 0.02 µM) the relative viability (NCI-H520; first compound 0.2 µM) was 0.463, the relative viability (NCI-H520; first compound 2 µM) was 0.455 and the relative viability (NCI-H520; first compound 6.325 µM) was 0.76. It also gave a relative viability (NCI-H520; first compound 20 µM) of 0.0736, a relative viability (NCI-H1944; first compound 0.2 µM) of 0.366 and a relative viability (NCI-H1944; first compound 0.6325 µM) of 0.349. The relative viability (NCI-H1944; first compound 2 µM) was 0.407, the relative viability (NCI-H1944; first compound 6.325 µM) was 0.387 and the relative viability (NCI-H1944; first compound 20 µM) was 0.425. The relative viability (NCI-H1651; first compound 0.2 µM) was 0.826, the relative viability (NCI-H1651; first compound 0.6325 µM) was 0.562 and the relative viability (NCI-H1651; first compound 2 µM) was 0.842. The relative viability (NCI-H1651; first compound 6.325 µM) was 0.849, the relative viability (NCI-H1651; first compound 20 µM) was 0.848 and the relative viability (NCI-H2087; first compound 0.6325 µM) was 0.185. It also gave a relative viability (NCI-H2087; first compound 2 µM) of 0.19, a relative viability (NCI-H2087; first compound 6.325 µM) of 0.168 and a relative viability (NCI-H2087; first compound 20 µM) of 0.117. For the same compound, the relative viability (HCC-15; first compound 0.2 µM) was 0.37, the relative viability (HCC-15; first compound 0.6325 µM) was 0.346 and the relative viability (HCC-15; first compound 2 µM) was 0.37. It also gave a relative viability (HCC-15; first compound 6.325 µM) of 0.328, a relative viability (HCC-15; first compound 20 µM) of 0.31 and a relative viability (NCI-H1975; first compound 0.2 µM) of 0.362. The relative viability (NCI-H1975; first compound 0.6325 µM) was 0.232, the relative viability (NCI-H1975; first compound 2 µM) was 0.277 and the relative viability (NCI-H1975; first compound 6.325 µM) was 0.351. For the same compound, the relative viability (NCI-H1975; first compound 20 µM) was 0.457, the relative viability (HCC-827; first compound 0.2 µM) was 0.443 and the relative viability (HCC-827; first compound 0.6325 µM) was 0.523. It also gave a relative viability (HCC-827; first compound 2 µM) of 0.474, a relative viability (HCC-827; first compound 6.325 µM) of 0.461 and a relative viability (HCC-827; first compound 20 µM) of 0.481. For the same compound, the relative viability (NCI-H727; first compound 0.2 µM) was 0.423, the relative viability (NCI-H727; first compound 0.6325 µM) was 0.322 and the relative viability (NCI-H727; first compound 6.325 µM) was 0.413. The relative viability (NCI-H727; first compound 20 µM) was 0.377, the relative viability (NCI-H661; first compound 0.2 µM) was 0.506 and the relative viability (NCI-H661; first compound 0.6325 µM) was 0.492. It also gave a relative viability (NCI-H661; first compound 2 µM) of 0.547, a relative viability (NCI-H661; first compound 6.325 µM) of 0.552 and a relative viability (NCI-H661; first compound 20 µM) of 0.503. It also gave a relative viability (NCI-H647; first compound 0.2 µM) of 0.306, a relative viability (NCI-H647; first compound 0.6325 µM) of 0.537 and a relative viability (NCI-H647; first compound 2 µM) of 0.279. The relative viability (NCI-H647; first compound 6.325 µM) was 0.456, the relative viability (NCI-H647; first compound 20 µM) was 0.413 and the relative viability (NCI-H1792; first compound 0.2 µM) was 0.413. For the same compound, the relative viability (NCI-H1792; first compound 6.325 µM) was 0.434, the relative viability (NCI-H1792; first compound 20 µM) was 0.54 and the relative viability (COR-L 105; first compound 0.2 µM) was 0.464. For the same compound, the relative viability (COR-L 105; first compound 0.6325 µM) was 0.421, the relative viability (COR-L 105; first compound 2 µM) was 0.378 and the relative viability (COR-L 105; first compound 6.325 µM) was 0.438. For the same compound, the relative viability (COR-L 105; first compound 20 µM) was 0.108, the relative viability (NCI-H522; first compound 0.2 µM) was 0.655 and the relative viability (NCI-H522; first compound 0.6325 µM) was 0.673. It also gave a relative viability (NCI-H522; first compound 2 µM) of 0.528, a relative viability (NCI-H522; first compound 6.325 µM) of 0.717 and a relative viability (NCI-H522; first compound 20 µM) of 0.121. The relative viability (NCI-H650; first compound 0.2 µM) was 0.58, the relative viability (NCI-H650; first compound 0.6325 µM) was 0.965 and the relative viability (NCI-H650; first compound 2 µM) was 0.762. The relative viability (NCI-H650; first compound 6.325 µM) was 0.833, the relative viability (NCI-H650; first compound 20 µM) was 0.0675 and the relative viability (COR-L23; first compound 0.2 µM) was 0.247. It also gave a relative viability (COR-L23; first compound 0.6325 µM) of 0.532, a relative viability (COR-L23; first compound 2 µM) of 0.495 and a relative viability (COR-L23; first compound 6.325 µM) of 0.357. For the same compound, the relative viability (COR-L23; first compound 20 µM) was 0.0237, the relative viability (NCI-H1755; first compound 0.2 µM) was 0.676 and the relative viability (NCI-H1755; first compound 0.6325 µM) was 0.729. The relative viability (NCI-H1755; first compound 2 µM) was 0.644, the relative viability (NCI-H1755; first compound 6.325 µM) was 0.745 and the relative viability (NCI-H1755; first compound 20 µM) was 0.762. For the same compound, the relative viability (NCI-H358; first compound 0.2 µM) was 0.137, the relative viability (NCI-H358; first compound 0.6325 µM) was 0.134 and the relative viability (NCI-H358; first compound 2 µM) was 0.108. For the same compound, the relative viability (NCI-H358; first compound 6.325 µM) was 0.108, the relative viability (NCI-H358; first compound 20 µM) was 0.0807 and the relative viability (H3255; first compound 0.2 µM) was 0.51. The relative viability (H3255; first compound 0.6325 µM) was 0.625, the relative viability (H3255; first compound 2 µM) was 0.57 and the relative viability (H3255; first compound 6.325 µM) was 0.575. The relative viability (H3255; first compound 20 µM) was 0.55, the relative viability (EPLC-272H; first compound 0.2 µM) was 0.281 and the relative viability (EPLC-272H; first compound 0.6325 µM) was 0.303. It also gave a relative viability (EPLC-272H; first compound 2 µM) of 0.272, a relative viability (EPLC-272H; first compound 6.325 µM) of 0.29 and a relative viability (EPLC-272H; first compound 20 µM) of 0.216. For the same compound, the relative viability (NCI-H1437; first compound 0.2 µM) was 0.631, the relative viability (NCI-H1437; first compound 0.6325 µM) was 0.525 and the relative viability (NCI-H1437; first compound 2 µM) was 0.449. For the same compound, the relative viability (NCI-H1437; first compound 6.325 µM) was 0.546, the relative viability (NCI-H1437; first compound 20 µM) was 0.479 and the relative viability (NCI-H1650; first compound 0.2 µM) was 0.545. It also gave a relative viability (NCI-H1650; first compound 0.6325 µM) of 0.48, a relative viability (NCI-H1650; first compound 2 µM) of 0.636 and a relative viability (NCI-H1650; first compound 6.325 µM) of 0.595. For the same compound, the relative viability (NCI-H1650; first compound 20 µM) was 0.0646, the relative viability (LCLC-103H; first compound 0.2 µM) was 0.675 and the relative viability (LCLC-103H; first compound 0.6325 µM) was 0.619. For the same compound, the relative viability (LCLC-103H; first compound 2 µM) was 0.604, the relative viability (LCLC-103H; first compound 6.325 µM) was 0.655 and the relative viability (LCLC-103H; first compound 20 µM) was 0.709.
